SMILES strings stand for the structures. Where a name gives a salt, the structure may show the parent alone. Read-outs that look alike come from different tables or passages of the source.

In test [1] the target is T1, 5HT7 receptors (Homo sapiens, UniProt P34969). Kind of test: Radiolabeled binding (IC50 and Ki), [3H]LSD competition on membranes of cells expressing recombinant 5HT7 receptors. Set-up: expressed in transfected cells. On the procedure:
Radiolabel Binding Studies for Serotonin 5HT7 Receptors, Method 1:
A solution of the compound of the disclosure to be tested is prepared as a 1-mg/ml stock in Assay Buffer or DMSO according to its solubility. A similar stock of the reference compound chlorpromazine is also prepared as a positive control. Eleven dilutions (5×assay concentration) of the compound of the disclosure and chlorpromazine are prepared in the Assay Buffer by serial dilution to yield final corresponding assay concentrations ranging from 10 pM to 10 μM.
A stock concentration of 5 nM [^3H]LSD (lysergic acid diethyl amide) is prepared in 50 mM Tris-HCl, 10 mM MgCl2, 1 mM EDTA, pH 7.4 (Assay Buffer). Aliquots (50 μl) of radioligand are dispensed into the wells of a 96-well plate containing 100 μl of Assay Buffer. Duplicate 50-μl aliquots of the compound of the disclosure test and chlorpromazine positive control reference compound serial dilutions are added.
Membrane fractions of cells expressing recombinant 5HT7 receptors (50 μL) are dispensed into each well. The membranes are prepared from stably transfected cell lines expressing 5HT7 receptors cultured on 10-cm plates by harvesting PBS-rinsed monolayers, resuspending and lysing in chilled, hypotonic 50 mM Tris-HCl, pH 7.4, centrifuging at 20,000×g, decanting the supernatant and storing at −80° C.; the membrane preparations are resuspended in 3 ml of chilled Assay Buffer and homogenized by several passages through a 26 gauge needle before using in the assay.
The 250-μl reactions are incubated at room temperature for 1.5 hours, then harvested by rapid filtration onto 0.3% polyethyleneimine-treated, 96-well filter mats using a 96-well Filtermate harvester. Four rapid 500-μl washes are performed with chilled Assay Buffer to reduce non-specific binding. The filter mats are dried, then scintillant is added to the filters and the radioactivity retained on the filters is counted in a Microbeta scintillation counter.
Raw data (dpm) representing total radioligand binding (i.e., specific+non-specific binding) are plotted as a function of the logarithm of the molar concentration of the competitor (i.e., test or reference compound). Non-linear regression of the normalized (i.e., percent radioligand binding compared to that observed in the absence of test or reference compound) raw data is performed in Prism 4.0 (GraphPad Software) using the built-in three parameter logistic model describing ligand competition binding to radioligand-labeled sites: y=bottom+[(top-bottom)/(1+10×−logIC50)] where bottom equals the residual radioligand binding measured in the presence of 10 μM reference compound (i.e., non-specific binding) and top equals the total radioligand binding observed in the absence of competitor. The log IC50 (i.e., the log of the ligand concentration that reduces radioligand binding by 50%) is thus estimated from the data and used to obtain the Ki by applying the Cheng-Prusoff approximation: Ki=IC50/(1+[ligand]/KD) • where [ligand] equals the assay radioligand concentration and KD equals the affinity constant of the radioligand for the target receptor.
^1Radiolabeled Binding (IC50 and K1)
A solution of the compound of the disclosure to be tested was prepared as a 1-mg/ml stock in Assay Buffer or DMSO according to its solubility. A similar stock of the reference compound chlorpromazine was also prepared as a positive control. Eleven dilutions (5× assay concentration) of the compound of the disclosure and chlorpromazine were prepared in the Assay Buffer by serial dilution to yield final corresponding assay concentrations ranging from […].
A stock concentration of 5 nM [^3H]LSD (lysergic acid diethyl amide) was prepared in 50 mM Tris-HCl, 10 mM MgCl2, 1 mM EDTA, pH 7.4 (Assay Buffer). Aliquots (50 μl) of radioligand were dispensed into the wells of a 96-well plate containing 100 μl of Assay Buffer. […]

The target of test [2] is T1, 5HT7 receptors. In words: Functional data (Kb), HitHunter cAMP enzyme fragment complementation assay with 5-HT as agonist. Format: cell-based. Set-up: expressed in transfected cells; G418 selection). On the procedure: Functional efficacy of the compounds of the disclosure on 5-HT7 serotonin receptors were measured in a cell based cAMP enzyme fragment complementation assay using the HitHunter cAMP assay (DiscoveRx). Cells stably expressing human 5HT7 receptors were plated in 96-well plates at 4000 cells/well, 16-20 hours prior to assay in growth media (Ultraculture medium, 2 mM GlutaMax and G418 1 mg/mL. Serial dilutions of the agonist, 5-hydroxytryptamine (5-HT), were prepared in a final concentration range of 10 μM to 10 nM. Compounds of the disclosure were prepared in 3-fold serial dilutions to obtain a final concentration range of 10 μM to 0.1 nM. Compounds of the disclosure are tested for agonist activity in the absence of 5-HT and antagonist activity in the presence of 5-HT. For the cAMP assay, the protocol was followed according to the instructions provided by the supplier. Briefly, cells were incubated with a compound of the disclosure for 30 minutes at 37° C. prior to addition of EC70 concentration of 5-HT. After an additional 30 minutes, cAMP antibody/cell lysis solution was added (20 μL/well) and incubated for 60 minutes at room temperature. cAMP XS+EA reagent is added (20 μL/well) and incubated for 2 hours at room temperature. Luminescence was read on the Envision Multilabel plate reader.

Where [3] appears, read: [3H]LSD radioligand, membranes of cells expressing recombinant 5HT7 receptors, read-out: IC50 (nM)^1.
The mark [4] stands for this setting: cAMP assay, cells stably expressing human 5HT7 receptors, antagonist activity in the presence of EC70 5-HT, read-out: Kb (nM)^2.
[5] abbreviates: Table 37, scaffold drawing 617, antagonist mode vs 5-HT, read-out: Kb.
[6] abbreviates: Table 35, scaffold drawing 615, read-out: IC50.
Setting [7] is: Table 35, scaffold drawing 615, antagonist mode vs 5-HT, read-out: Kb.

T1 sequence (P34969 whole entry): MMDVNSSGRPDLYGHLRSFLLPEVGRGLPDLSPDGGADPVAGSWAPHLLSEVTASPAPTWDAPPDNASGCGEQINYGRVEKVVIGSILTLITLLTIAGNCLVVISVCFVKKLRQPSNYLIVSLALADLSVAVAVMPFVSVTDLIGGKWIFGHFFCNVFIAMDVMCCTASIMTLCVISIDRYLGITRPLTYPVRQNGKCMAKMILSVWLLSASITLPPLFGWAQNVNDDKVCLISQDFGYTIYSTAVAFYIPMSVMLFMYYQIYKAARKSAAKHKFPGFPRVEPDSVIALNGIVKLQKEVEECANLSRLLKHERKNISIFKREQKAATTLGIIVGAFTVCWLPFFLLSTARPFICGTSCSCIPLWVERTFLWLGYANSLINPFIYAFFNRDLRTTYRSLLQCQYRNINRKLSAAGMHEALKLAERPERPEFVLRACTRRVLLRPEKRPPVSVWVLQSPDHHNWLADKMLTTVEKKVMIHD

What is called Ki is the dissociation constant of the complex between target and ligand, obtained from inhibition or displacement. Broadly, the Kb is the equilibrium dissociation constant of an antagonist, usually derived from a functional assay. As for `CCC1(CC)C[C@@H](CCN2CCN(c3ccc(C)cc3)CC2)NC1=O` [(S)-3,3-diethyl-5-(2-(4-(p-tolyl)piperazin-1-yl)ethyl)pyrrolidin-2-one], the Ki at 5HT7 receptors [1] (Table 36, scaffold drawing 616) came out at 79 nM. Also, the Kb at 5HT7 receptors [2] (Table 36, scaffold drawing 616, antagonist mode vs 5-HT, read-out: Kb) amounted to 58.1 nM.

As usually defined, the IC50 is the point on the concentration scale where inhibition reaches its midpoint. With `CCC1(CC)CC(CCN2CCN(c3ccc(C)cc3N3CCOCC3)CC2)NC1=O` (stereo not shown) [3,3-diethyl-5-(2-(4-(4-methyl-2-morpholinophenyl)piperazin-1-yl)ethyl)pyrrolidin-2-one], the IC50 on 5HT7 receptors [1] (setting [3]) is 74 nM. The antagonist equilibrium constant (Kb) at 5HT7 receptors [2] (setting [4]) is 59.3 nM.

As for `CCC1(CC)CC(CCN2CCN(c3ccccc3C(C)C)CC2)NC1=O` (stereo not shown) [3,3-diethyl-5-(2-(4-(2-isopropylphenyl)piperazin-1-yl)ethyl)pyrrolidin-2-one], on 5HT7 receptors [1] (setting [3]), the IC50 was 23 nM. Moreover, the Kb at 5HT7 receptors [2] (setting [4]) stood at 163 nM.

For `CC(=O)N1CCC2(CC1)C[C@H](CCN1CCN(c3cccc(Cl)c3)CC1)NC2=O` [drawing 617 n=2 R3=3-Cl-Phenyl R7=Acetyl, (R)-8-acetyl-3-(2-(4-(3-chlorophenyl)piperazin-1-yl)ethyl)-2,8-diazaspiro[4.5]decan-1-one], on 5HT7 receptors [1] (Table 37, scaffold drawing 617), the Ki was 63 nM. The Kb at 5HT7 receptors [2] (setting [5]) came out at 5.04 nM.

Take `CC(=O)N1CCC2(CC1)C[C@H](CCN1CCN(c3ccc(F)cc3)CC1)NC2=O` [drawing 617 n=2 R3=4-F-Phenyl R7=Acetyl, (R)-8-acetyl-3-(2-(4-(4-fluorophenyl)piperazin-1-yl)ethyl)-2,8-diazaspiro[4.5]decan-1-one]: at 5HT7 receptors [1] (Table 37, scaffold drawing 617), the Ki amounted to 76 nM. Further, the Kb at 5HT7 receptors [2] (setting [5]) worked out at 14.4 nM.

As to `CCC1(CC)C[C@H](CCN2CCN(c3ccc(Cl)c(Cl)c3)CC2)NC1=O` [(R)-5-(2-(4-(3,4-dichlorophenyl)piperazin-1-yl)ethyl)-3,3-diethylpyrrolidin-2-one], the IC50 at 5HT7 receptors [1] (setting [6]) was found to be 82.8 nM. For the same compound, the Kb on 5HT7 receptors [2] (setting [7]) stood at 6.19 nM.

Consider `CCC1(CC)C[C@H](CCN2CCN(c3ccc(C)cc3)CC2)NC1=O` [(R)-3,3-diethyl-5-(2-(4-(p-tolyl)piperazin-1-yl)ethyl)pyrrolidin-2-one], for which the Ki on 5HT7 receptors [1] (Table 35, scaffold drawing 615) came to 11 nM. For the same compound, at 5HT7 receptors [2] (setting [7]), the Kb stood at 8.43 nM.

On to `CCC1(CC)CC(CCN2CCN(c3ccccc3N3CCOCC3)CC2)NC1=O` (stereo not shown) [3,3-diethyl-5-(2-(4-(2-morpholinophenyl)piperazin-1-yl)ethyl)pyrrolidin-2-one], for which the IC50 at 5HT7 receptors [1] (setting [3]) worked out at 24 nM. Further, at 5HT7 receptors [2] (setting [4]), the Kb worked out at 32.3 nM.

For the compound `CCC1(CC)CC(CCN2CCN(c3ccc(C)cc3)CC2)NC1=O` (stereo not shown) [3,3-diethyl-5-(2-(4-(p-tolyl)piperazin-1-yl)ethyl)pyrrolidin-2-one], the IC50 on 5HT7 receptors [1] (setting [3]) stood at 28 nM. Also, the antagonist equilibrium constant (Kb) at 5HT7 receptors [2] (setting [4]) is 24.1 nM.

In the case of `CCC1(CC)C[C@H](CCN2CCN(c3ccc(F)cc3)CC2)NC1=O` [(R)-3,3-diethyl-5-(2-(4-(4-fluorophenyl)piperazin-1-yl)ethyl)pyrrolidin-2-one], on 5HT7 receptors [1] (setting [6]), the IC50 turned out to be 12.3 nM. The Kb at 5HT7 receptors [2] (setting [7]) came out at 0.81 nM.

For the compound `CCC1(CC)CC(CCN2CCN(c3ccccc3)CC2)NC1=O` (stereo not shown) [3,3-diethyl-5-(2-(4-phenylpiperazin-1-yl)ethyl)pyrrolidin-2-one], the IC50 at 5HT7 receptors [1] (setting [3]) turned out to be 68 nM. The Kb on 5HT7 receptors [2] (setting [4]) was found to be 17.8 nM.

On to `CCC1(CC)CC(CCN2CCN(c3ccc(F)cc3)CC2)NC1=O` (stereo not shown) [3,3-diethyl-5-(2-(4-(4-fluorophenyl)piperazin-1-yl)ethyl)pyrrolidin-2-one], for which, at 5HT7 receptors [1] (setting [3]), the IC50 came to 8.5 nM. For the same compound, the Kb at 5HT7 receptors [2] (setting [4]) amounted to 8.98 nM.

Take `CCC1(CC)CC(CCN2CCN(c3ccc(Cl)cc3)CC2)NC1=O` (stereo not shown) [5-(2-(4-(4-chlorophenyl)piperazin-1-yl)ethyl)-3,3-diethylpyrrolidin-2-one]: the IC50 on 5HT7 receptors [1] (setting [3]) amounted to 13 nM. Moreover, on 5HT7 receptors [2] (setting [4]), the Kb was found to be 54.6 nM.

For `CCC1(CC)C[C@H](CN2CCN(c3ccc(C)cc3N3CCOCC3)CC2)NC1=O` [(R)-3,3-diethyl-5-((4-(4-methyl-2-morpholinophenyl)piperazin-1-yl)methyl)pyrrolidin-2-one formate], on 5HT7 receptors [1] (Table 35, scaffold drawing 615), the Ki stood at 132 nM. Further, at 5HT7 receptors [2] (setting [7]), the Kb came to 43.8 nM.

Consider `CS(=O)(=O)N1CCC2(CC1)C[C@H](CCN1CCN(c3cccc(Cl)c3)CC1)NC2=O` [drawing 617 n=2 R3=3-Cl-Phenyl R7=MeSO2, (R)-3-(2-(4-(3-chlorophenyl)piperazin-1-yl)ethyl)-8-(methylsulfonyl)-2,8-diazaspiro[4.5]decan-1-one], for which the Ki on 5HT7 receptors [1] (Table 37, scaffold drawing 617) was determined as 107 nM. Moreover, the Kb at 5HT7 receptors [2] (setting [5]) came out at 13.5 nM.

With `CCC1(CC)C[C@H](CCN2CCN(c3cccc(Cl)c3)CC2)NC1=O` [(R)-5-(2-(4-(3-chlorophenyl)piperazin-1-yl)ethyl)-3,3-diethylpyrrolidin-2-one], the IC50 on 5HT7 receptors [1] (setting [6]) was 9.9 nM. Also, the Kb at 5HT7 receptors [2] (setting [7]) turned out to be 1.38 nM.

With `CCC1(CC)CC(CCN2CCN(c3ccc(O)cc3)CC2)NC1=O` (stereo not shown) [3,3-diethyl-5-(2-(4-(4-hydroxyphenyl)piperazin-1-yl)ethyl)pyrrolidin-2-one], on 5HT7 receptors [1] (setting [3]), the IC50 worked out at 34 nM. In addition, the Kb on 5HT7 receptors [2] (setting [4]) amounted to 50 nM.

(Values after US12559494B2, “Functionalized lactams as modulators of the 5-hydroxytryptamine receptor 7 and their method of use” (Temple University - Of The Commonwealth System of Higher …, priority 2018, dated 2026).)
